Data taken from patent publication US12337005B2, “Methods of treating thrombosis” (UNIVERSITY OF IOWA RESEARCH FOUNDATION, priority 2020, dated 2025).

Experiments:
Assay type in all cases: cell-based
[1] = biological target: T1, PKM2 dimers (Mus musculus, UniProt P52480); experiment: Native Western blot of PKM2 dimer and tetramer in stimulated mouse platelets; details: mouse platelets stimulated with convulxin or thrombin
T1 construct: PKM2 dimer and tetramer expression in platelets pre-treated with vehicle or ML265; endogenous in cells; host or cells: mouse platelets
T1 sequence (P52480 2-531 limits assumed): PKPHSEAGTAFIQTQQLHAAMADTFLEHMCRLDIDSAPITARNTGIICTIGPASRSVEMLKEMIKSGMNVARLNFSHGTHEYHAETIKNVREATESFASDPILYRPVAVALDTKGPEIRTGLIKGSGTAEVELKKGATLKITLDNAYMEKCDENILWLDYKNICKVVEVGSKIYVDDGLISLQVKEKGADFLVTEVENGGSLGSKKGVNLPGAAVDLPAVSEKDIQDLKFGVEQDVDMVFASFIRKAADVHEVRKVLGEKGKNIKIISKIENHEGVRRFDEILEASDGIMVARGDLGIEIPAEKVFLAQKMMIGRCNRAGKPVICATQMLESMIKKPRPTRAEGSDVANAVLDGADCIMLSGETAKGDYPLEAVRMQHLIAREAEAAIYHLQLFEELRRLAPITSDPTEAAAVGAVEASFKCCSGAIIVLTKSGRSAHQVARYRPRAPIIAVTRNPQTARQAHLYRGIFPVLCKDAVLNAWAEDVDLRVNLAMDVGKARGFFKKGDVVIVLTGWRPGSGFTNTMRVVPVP
Method: Mouse platelets were prepared. Blood from anesthetized mice was drawn from the retro-orbital plexus and collected in 1.5 mL polypropylene tubes containing 300 μL of enoxaparin (0.3 mg/mL; Sanofi-Aventis, US LLC). The blood was centrifuged at 100 g for 5 minutes, and the platelet-rich plasma (PRP) was collected in a fresh tube. To prevent platelet activation, PRP was incubated with PGI2 (2 μg/mL) at 37° C. for 5 minutes. PRP was further centrifuged at 600 g for 5 minutes. The obtained pellets were suspended in 1 mL modified Tyrode-N-2-hydroxyethylpiperazine-N′-2-ethane sulfonic acid (HEPES) buffer (137 mM NaCl, 0.3 mM Na2HPO4, 2 mM KCl, 12 mM NaHCO3, 5 mM N-2-hydroxyethylpiperazine-N′-2-ethane sulfonic acid, 5 mM glucose, 0.35% bovine serum albumin, pH 7.2). The washing step was repeated twice with Tyrode's to remove PGI2, and platelets were fluorescently labeled with calcein green (wherever required), AM (2.5 μg/mL; Molecular Probes) for 10 minutes at 37° C.
Platelet proteins were separated on 4-20% SDS-PAGE (sodium dodecyl sulfate-polyacrylamide gel electrophoresis) gradient gels and electrophoretic transferred to PVDF (polyvinylidene fluoride) membrane by using Bio-Rad western blotting system. For PKM2 dimer and tetramer study 6% native gels are used. […] Blots were developed using enhanced chemiluminescence and quantified using Image J software from NIH (Bethesda, MD, USA).

[2] = tested on: human platelets; experiment: Annexin V-affinity assay, human platelets
Method: (§1) Mouse and human washed platelets (1×10^8/ml) were pre-incubated with different concentrations of ML265 ([…]). Washed platelets activated with thrombin (0.5 U/ml)+convulxin (100 ng/ml) were used as a positive control. The samples were added to 1× Annexin V-binding buffer (BD Biosciences). Following this, annexin V-FITC antibody was added to each sample, gently mixed, and incubated at room temperature for 15 minutes in the dark. After incubation, 1× Annexin-binding buffer was added to each tube and analyzed by a Becton Dickinson FACSCalibur flow cytometer.

[3] = tested on: human platelets; experiment: Lactate measurement, human platelets; details: human platelets stimulated with convulxin or thrombin; ML265 pre-treated (50 or 100 μM)
Method: Washed platelets (5×10^8 platelets/mL) in DMEM (5 mM HEPES, 25 mM glucose, 1 mM pyruvate and 2 mM glutamine) were pre-treated with 50 or 100 μM of ML265 or vehicle (DMSO) for 10 mins and stimulated by convulxin (200 ng/ml) for 1 hr. Cells were centrifuged and supernatant was collected. Levels of L-lactate in supernatant were determined using a glycolysis cell based assay kit (Cayman; Item No. 600450) according to the manufacturer's instructions.

[4] = tested on: murine platelets; experiment: Clot retraction, mouse platelet-rich plasma; details: thrombin 0.25 U/ml, ML265 50 and 100 μM
Method: To measure thrombin-stimulated fibrin clot retraction PRP was treated with ML265 (50 and 100 μM) or vehicle control (DMSO) for 10 minutes. Tyrode buffer was added to test tubes, along with red blood cells, to allow visualization of the clot. This was followed by the addition of PRP. Clot formation was initiated by adding thrombin (final concentration 0.25 U/ml) to the test tubes. Photographs were taken every 15 minutes and the assay was terminated after 60 minutes at which time the clot in the vehicle-treated samples were seen to have retracted completely. Clot area was analyzed using Image J software from NIH (Bethesda, MD, USA).

[5] = tested on: human platelets; experiment: Metabolomic analysis of human platelets
Method: Human washed platelets (3×10^8 cells in 300 μl) were treated with ML265 (100 μM) or DMSO for 10 mins and stimulated by convulxin for 10 minutes. Cells were then fixed by adding 80% methanol and sent to Metabolon Inc. (Morrisville, NC, USA) for metabolomic analysis. Briefly, samples were homogenized and subjected to methanol extraction then split into aliquots for analysis by ultra-high-performance liquid chromatography/mass spectrometry (UHPLC/MS) in the positive (two methods) and negative (two methods) mode. Metabolites were then identified by automated comparison of ion features to a reference library of chemical standards followed by visual inspection for quality control as previously described (Dehaven et al., 2010). Metaboanalyst 4.0 feature PatternHunter was used for finding the metabolites showing correlation (≥0.5) with specific trends (Xia et al., 2009). The metabolites obtained after PatternHunter analysis have been represented as a heatmap. Furthermore, to understand the functional role of the changes in concentration of these metabolites, the pathway analysis was performed using Metaboanalyst 4.0. The Global Ancova and Relative-betweenness Centrality topological measures were used to identify the highly impacted pathways with KEGG human metabolic library as the reference. The False Discovery Rate corrected pathway terms with P≤0.05 were considered significant.

[6] = tested on: murine platelets; experiment: ATP secretion from dense granules, mouse platelets; details: stimulus-activated mouse platelets pretreated with ML265
Method: (§2) Platelet rich plasma (PRP) or washed platelets (2×10^8/ml) treated with vehicle (DMSO) or ML265 (50 and 100 μM) were stirred (1200 rpm) at 37° C. for 2 min in a whole blood/optical lumi-aggregometer (Chrono-log; model 700-2) before the addition of agonists (convulxin, collagen, thrombin, PAR4, TRAP (PAR1 agonist) or adenosine diphosphate [ADP]). Aggregation was measured as percent change in light transmission, where 100% refers to transmittance through the blank sample (PRP/Buffer). Platelet dense granule secretion was determined by measuring the release of ATP using luciferin-luciferase reagent. To examine the effect of ML265 on ATP secretion, washed platelets were pretreated with vehicle (DMSO) or ML265 (50 and 100 μM) for 10 minutes before stimulation with various agonists. ATP release was performed in a lumi-aggregometer (Chrono-log; model 700-2) at 37° C.

[7] = tested on: mouse platelets; experiment: Annexin V-affinity assay, mouse platelets; details: increasing concentrations of ML265
Method: as §1

[8] = tested on: murine platelets; experiment: In vitro platelet aggregation, mouse platelet-rich plasma; details: convulxin, collagen, PAR4 and ADP, ML265 50 and 100 μM
Method: as §2

[9] = tested on: integrin αIIbβ3; experiment: Integrin αIIbβ3 activation (JONA binding), mouse platelets; details: convulxin and PAR4-induced
[10] = ML265 100 μM, convulxin-stimulated human platelets

Cn1c2cc([S+](C)[O-])sc2c2cnn(Cc3cccc(N)c3)c(=O)c21 (stereo not drawn) [ML265, 6-[(3-aminophenyl)methyl]-4,6-dihydro-4-methyl-2-(methylsulfinyl)-5H-thieno[2′,3′:4,5]pyrrolo[2,3-d]pyridazine-5-one]
PKM2 dimer formation [1]: limited | concentration not inducing phosphatidyl serine surface expression (annexin V) [2]: ≤ 300 µM | apoptosis in resting platelets (Annexin V binding) ([2]; increasing concentrations of ML265): does not induce | lactate production [3]: significantly decreased | clot retraction [4]: significant decrease | levels of arachidonic acid and 12-HETE [5, 10]: altered | metabolites in the glycolytic pathway, including glucose uptake and lactate production [5, 10]: altered | level of free fatty acids and palmitate ([5]; ML265 100 μM, human platelets): altered | palmitate ([5]; ML265 pre-treated activated human platelets compared to control): downregulated | arachidonate level ([5]; convulxin-stimulated human platelets pre-treated with ML265, vs convulxin alone): further decrease | glycerophospholipid metabolism ([5]; pre-treatment of human platelets with ML265): downregulated | dense-granule secretion (ATP release) [6]: significant decrease | apoptosis in resting platelets (Annexin V binding) [7]: does not induce | stimulus-dependent platelet aggregation [8]: reduced | activation of αIIbβ3 (JONA binding) [9]: decreased
